Results published in patent US11891365B2, “3-alkyl-4-amido-bicyclic [4,5,0] hydroxamic acids as HDAC inhibitors” (Valo Health, Inc., priority 2015, dated 2024).

The compounds below were run against T1, Full length human recombinant HDAC6 protein (Homo sapiens, UniProt Q9UBN7) (assay: In vitro histone deacetylase assay: enzymatic HDAC6 electrophoretic mobility shift assay). Details: 1 nM enzyme, 2 μM peptide substrate RHKK(Ac)-NH2, 25° C., 12 concentrations; read-out: Inhibitory Concentration (IC50) Values against HDAC6, Activity Range.
T1 sequence (Q9UBN7 1-1215): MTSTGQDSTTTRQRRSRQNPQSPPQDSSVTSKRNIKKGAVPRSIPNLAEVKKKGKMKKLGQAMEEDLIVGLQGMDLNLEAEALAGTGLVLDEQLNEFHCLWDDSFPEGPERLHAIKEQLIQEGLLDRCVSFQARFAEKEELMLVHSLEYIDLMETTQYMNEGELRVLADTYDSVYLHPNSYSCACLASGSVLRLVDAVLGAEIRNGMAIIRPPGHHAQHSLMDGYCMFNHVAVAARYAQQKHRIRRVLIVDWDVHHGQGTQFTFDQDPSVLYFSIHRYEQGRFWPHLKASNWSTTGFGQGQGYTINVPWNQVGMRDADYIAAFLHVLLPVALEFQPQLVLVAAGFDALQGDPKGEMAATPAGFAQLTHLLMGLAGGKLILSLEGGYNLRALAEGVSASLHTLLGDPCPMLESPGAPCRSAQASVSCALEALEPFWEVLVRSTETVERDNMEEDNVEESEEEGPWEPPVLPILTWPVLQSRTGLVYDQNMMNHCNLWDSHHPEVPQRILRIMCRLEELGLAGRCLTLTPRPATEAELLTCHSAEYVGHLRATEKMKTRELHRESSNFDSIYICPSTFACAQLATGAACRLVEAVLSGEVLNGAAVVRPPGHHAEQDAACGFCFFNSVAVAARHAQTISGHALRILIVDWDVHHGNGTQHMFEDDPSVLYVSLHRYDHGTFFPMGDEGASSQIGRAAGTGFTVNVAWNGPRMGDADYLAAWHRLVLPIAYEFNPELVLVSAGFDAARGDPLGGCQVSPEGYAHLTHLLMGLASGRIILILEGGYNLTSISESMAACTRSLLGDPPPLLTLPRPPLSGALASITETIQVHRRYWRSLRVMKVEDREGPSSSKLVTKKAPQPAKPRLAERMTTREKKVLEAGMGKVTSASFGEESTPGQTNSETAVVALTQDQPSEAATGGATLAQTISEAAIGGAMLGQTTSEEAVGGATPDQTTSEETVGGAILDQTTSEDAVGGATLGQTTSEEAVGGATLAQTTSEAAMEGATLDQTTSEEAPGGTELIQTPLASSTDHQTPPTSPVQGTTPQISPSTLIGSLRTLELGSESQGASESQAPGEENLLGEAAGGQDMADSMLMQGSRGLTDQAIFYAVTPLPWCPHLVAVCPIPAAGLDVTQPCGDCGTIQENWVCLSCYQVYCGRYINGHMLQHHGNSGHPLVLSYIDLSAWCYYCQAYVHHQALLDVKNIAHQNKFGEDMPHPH
Type: biochemical

| Structure (SMILES) | IC50 [nM] |
| --- | --- |
| C[C@H]1COc2cc(C(=O)NO)ccc2CN1C(=O)C1CCS(=O)(=O)CC1 [(S)-4-(1,1-dioxidotetrahydro-2H-thiopyran-4-carbonyl)-N-hydroxy-3-methyl-2,3,4,5-tetrahydrobenzo[f][1,4]oxazepine-8-carboxamide] | ≤ 100 |
| C[C@H]1COc2cc(C(=O)NO)ccc2CN1C(=O)C1CS(=O)(=O)C1 [(S)-4-(1,1-dioxidothietane-3-carbonyl)-N-hydroxy-3-methyl-2,3,4,5-tetrahydrobenzo[f][1,4]oxazepine-8-carboxamide] | ≤ 100 |
| CC(=O)N1CCC(C(=O)N2Cc3ccc(C(=O)NO)cc3OC[C@@H]2C)CC1 [(S)-4-(1-acetylpiperidine-4-carbonyl)-N-hydroxy-3-methyl-2,3,4,5-tetrahydrobenzo[f][1,4]oxazepine-8-carboxamide] | ≤ 100 |
| C[C@H]1COc2cc(C(=O)NO)ccc2CN1C(=O)C1CCN(C=O)CC1 [(S)-4-(1-formylpiperidine-4-carbonyl)-N-hydroxy-3-methyl-2,3,4,5-tetrahydrobenzo[f][1,4]oxazepine-8-carboxamide] | ≤ 100 |
| C[C@H]1COc2cc(C(=O)NO)ccc2CN1C(=O)c1nc2ccccc2[nH]1 [(S)-4-(1H-benzo[d]imidazole-2-carbonyl)-N-hydroxy-3-methyl-2,3,4,5-tetrahydrobenzo[f][1,4]oxazepine-8-carboxamide] | ≤ 100 |
| CC1(C)C[C@@H]1C(=O)N1CCOc2cc(C(=O)NO)ccc2C1 [(S)-4-(2,2-dimethylcyclopropane-1-carbonyl)-N-hydroxy-2,3,4,5-tetrahydrobenzo[f][1,4]oxazepine-8-carboxamide] | 100 to 500 |
| C[C@H]1COc2cc(C(=O)NO)ccc2CN1C(=O)C(C)(C)c1ccc(F)cc1 [(S)-4-(2-(4-fluorophenyl)-2-methylpropanoyl)-N-hydroxy-3-methyl-2,3,4,5-tetrahydrobenzo[f][1,4]oxazepine-8-carboxamide] | ≤ 100 |
| C[C@H]1COc2cc(C(=O)NO)ccc2CN1C(=O)CCOc1ccc(F)cc1 [(S)-4-(3-(4-fluorophenoxy)propanoyl)-N-hydroxy-3-methyl-2,3,4,5-tetrahydrobenzo[f][1,4]oxazepine-8-carboxamide] | ≤ 100 |
| C[C@H]1COc2cc(C(=O)NO)ccc2CN1C(=O)C(C)(C)Cc1ccc(F)cc1 [(S)-4-(3-(4-fluorophenyl)-2,2-dimethylpropanoyl)-N-hydroxy-3-methyl-2,3,4,5-tetrahydrobenzo[f][1,4]oxazepine-8-carboxamide] | ≤ 100 |
| C[C@H]1COc2cc(C(=O)NO)ccc2CN1C(=O)C1CC(OCc2ccccc2)C1 (stereo partly drawn) [(S)-4-(3-(benzyloxy)cyclobutane-1-carbonyl)-N-hydroxy-3-methyl-2,3,4,5-tetrahydrobenzo[f][1,4]oxazepine-8-carboxamide] | ≤ 100 |
| CCC1(C(=O)N2Cc3ccc(C(=O)NO)cc3OC[C@@H]2C)COC1 [(S)-4-(3-ethyloxetane-3-carbonyl)-N-hydroxy-3-methyl-2,3,4,5-tetrahydrobenzo[f][1,4]oxazepine-8-carboxamide] | ≤ 100 |
| C[C@H]1COc2cc(C(=O)NO)ccc2CN1C(=O)c1ccc(F)cc1 [(S)-4-(4-fluorobenzoyl)-N-hydroxy-3-methyl-2,3,4,5-tetrahydrobenzo[f][1,4]oxazepine-8-carboxamide] | ≤ 100 |
| C[C@H]1COc2cc(C(=O)NO)ccc2CN1C(=O)C1(F)CCOCC1 [(S)-4-(4-fluorotetrahydro-2H-pyran-4-carbonyl)-N-hydroxy-3-methyl-2,3,4,5-tetrahydrobenzo[f][1,4]oxazepine-8-carboxamide] | ≤ 100 |

Now from value to compound:

| IC50 [nM] | Structure (SMILES) |
| --- | --- |
| ≤ 100 | C[C@H]1COc2cc(C(=O)NO)ccc2CN1C(=O)[C@@H]1CCOC(C)(C)C1 [(S)-4-((R)-2,2-dimethyltetrahydro-2H-pyran-4-carbonyl)-N-hydroxy-3-methyl-2,3,4,5-tetrahydrobenzo[f][1,4]oxazepine-8-carboxamide] |
| ≤ 100 | C[C@H]1COc2cc(C(=O)NO)ccc2CN1C(=O)[C@H]1CCOC(C)(C)C1 [(S)-4-((S)-2,2-dimethyltetrahydro-2H-pyran-4-carbonyl)-N-hydroxy-3-methyl-2,3,4,5-tetrahydrobenzo[f][1,4]oxazepine-8-carboxamide] |
| ≤ 100 | C[C@H]1COc2cc(C(=O)NO)ccc2CN1C(=O)C1CCC1 [(S)-4-(cyclobutanecarbonyl)-N-hydroxy-3-methyl-2,3,4,5-tetrahydrobenzo[f][1,4]oxazepine-8-carboxamide] |
| ≤ 100 | C[C@H]1COc2cc(C(=O)NO)ccc2CN1C(=O)C1CCCCC1 [(S)-4-(cyclohexanecarbonyl)-N-hydroxy-3-methyl-2,3,4,5-tetrahydrobenzo[f][1,4]oxazepine-8-carboxamide] |
| ≤ 100 | C[C@H]1COc2cc(C(=O)NO)ccc2CN1C(=O)C1CCCC1 [(S)-4-(cyclopentanecarbonyl)-N-hydroxy-3-methyl-2,3,4,5-tetrahydrobenzo[f][1,4]oxazepine-8-carboxamide] |
| ≤ 100 | C[C@H]1COc2cc(C(=O)NO)ccc2CN1C(=O)C1CC1 [(S)-4-(cyclopropanecarbonyl)-N-hydroxy-3-methyl-2,3,4,5-tetrahydrobenzo[f][1,4]oxazepine-8-carboxamide] |
| > 500 | CC(=O)N1Cc2ccc(C(=O)NO)cc2O[C@@H](C)C1 [(S)-4-acetyl-N-hydroxy-2-methyl-2,3,4,5-tetrahydrobenzo[f][1,4]oxazepine-8-carboxamide] |
| 100 to 500 | CC(=O)N1Cc2ccc(C(=O)NO)cc2OC[C@@H]1C(C)C [(S)-4-acetyl-N-hydroxy-3-isopropyl-2,3,4,5-tetrahydrobenzo[f][1,4]oxazepine-8-carboxamide] |
| 100 to 500 | CC(=O)N1Cc2ccc(C(=O)NO)cc2OC[C@@H]1C [(S)-4-acetyl-N-hydroxy-3-methyl-2,3,4,5-tetrahydrobenzo[f][1,4]oxazepine-8-carboxamide] |
| ≤ 100 | C[C@H]1COc2cc(C(=O)NO)ccc2CN1C(=O)c1ccccc1 [(S)-4-benzoyl-N-hydroxy-3-methyl-2,3,4,5-tetrahydrobenzo[f][1,4]oxazepine-8-carboxamide] |
| 100 to 500 | COC[C@@H]1CN(C=O)Cc2ccc(C(=O)NO)cc2O1 [(S)-4-formyl-N-hydroxy-2-(methoxymethyl)-2,3,4,5-tetrahydrobenzo[f][1,4]oxazepine-8-carboxamide] |
| ≤ 100 | C[C@H]1CN(C=O)Cc2ccc(C(=O)NO)cc2O1 [(S)-4-formyl-N-hydroxy-2-methyl-2,3,4,5-tetrahydrobenzo[f][1,4]oxazepine-8-carboxamide] |
| ≤ 100 | O=CN1Cc2ccc(C(=O)NO)cc2O[C@@H](c2ccccc2)C1 [(S)-4-formyl-N-hydroxy-2-phenyl-2,3,4,5-tetrahydrobenzo[f][1,4]oxazepine-8-carboxamide] |
| ≤ 100 | C[C@H]1COc2cc(C(=O)NO)ccc2CN1C=O [(S)-4-formyl-N-hydroxy-3-methyl-2,3,4,5-tetrahydrobenzo[f][1,4]oxazepine-8-carboxamide] |
| ≤ 100 | COC[C@@H]1CN(C(=O)C2(C)CCC2)Cc2ccc(C(=O)NO)cc2O1 [(S)-N-hydroxy-2-(methoxymethyl)-4-(1-methylcyclobutane-1-carbonyl)-2,3,4,5-tetrahydrobenzo[f][1,4]oxazepine-8-carboxamide] |
| 100 to 500 | COC[C@@H]1CN(C(=O)C2CCOCC2)Cc2ccc(C(=O)NO)cc2O1 [(S)-N-hydroxy-2-(methoxymethyl)-4-(tetrahydro-2H-pyran-4-carbonyl)-2,3,4,5-tetrahydrobenzo[f][1,4]oxazepine-8-carboxamide] |
| 100 to 500 | C[C@H]1CN(C(=O)C2(C)CCC2)Cc2ccc(C(=O)NO)cc2O1 [(S)-N-hydroxy-2-methyl-4-(1-methylcyclobutane-1-carbonyl)-2,3,4,5-tetrahydrobenzo[f][1,4]oxazepine-8-carboxamide] |
| ≤ 100 | O=C(NO)c1ccc2c(c1)O[C@@H](c1ccccc1)CN(C(=O)C1CCOCC1)C2 [(S)-N-hydroxy-2-phenyl-4-(tetrahydro-2H-pyran-4-carbonyl)-2,3,4,5-tetrahydrobenzo[f][1,4]oxazepine-8-carboxamide] |
| ≤ 100 | COC[C@H]1COc2cc(C(=O)NO)ccc2CN1C(=O)C1CCOCC1 [(S)-N-hydroxy-3-(methoxymethyl)-4-(tetrahydro-2H-pyran-4-carbonyl)-2,3,4,5-tetrahydrobenzo[f][1,4]oxazepine-8-carboxamide] |
